Measurements as given in the NIST ThermoML archive (doi:10.1016/j.fluid.2018.09.024).
± gives the expanded uncertainty stated by the source.

Experiment: activity coefficient (dimensionless); of the first substance listed, at infinite dilution; xn = mol fraction of the nth substance listed
Conditions: 101.33 kPa, Liquid, Chromatography, x1 = 0

SMILES | activity coefficient (328.15 K) | activity coefficient (338.15 K) | activity coefficient (348.15 K) | activity coefficient (358.15 K) | activity coefficient (368.15 K) | activity coefficient (378.15 K) | activity coefficient (318.15 K)
Cc1ccccc1C [1,2-dimethylbenzene] + CCCCCCCCCCCC[N+](C)(C)CCOc1ccccc1.N#C[N-]C#N | 1.23 ± 0.08 | 1.28 ± 0.08 | 1.32 ± 0.09 | 1.36 ± 0.09 | 1.4 ± 0.09 | 1.43 ± 0.09 | –
Cc1ccccc1C [1,2-dimethylbenzene] + CCCCCCCCCCCC[N+](C)(C)CCOc1ccccc1.O=S(=O)([N-]S(=O)(=O)C(F)(F)F)C(F)(F)F | 0.83 ± 0.053 | 0.874 ± 0.056 | 0.922 ± 0.058 | 0.968 ± 0.061 | 1.01 ± 0.06 | – | 0.783 ± 0.051
Cc1cccc(C)c1 [1,3-dimethylbenzene] + CCCCCCCCCCCC[N+](C)(C)CCOc1ccccc1.N#C[N-]C#N | 1.38 ± 0.09 | 1.44 ± 0.09 | 1.5 ± 0.1 | 1.56 ± 0.1 | 1.61 ± 0.11 | 1.66 ± 0.11 | –
Cc1cccc(C)c1 [1,3-dimethylbenzene] + CCCCCCCCCCCC[N+](C)(C)CCOc1ccccc1.O=S(=O)([N-]S(=O)(=O)C(F)(F)F)C(F)(F)F | 0.902 ± 0.057 | 0.957 ± 0.06 | 1.01 ± 0.06 | 1.07 ± 0.07 | 1.12 ± 0.07 | – | 0.847 ± 0.054
Cc1ccc(C)cc1 [1,4-dimethylbenzene] + CCCCCCCCCCCC[N+](C)(C)CCOc1ccccc1.N#C[N-]C#N | 1.38 ± 0.09 | 1.44 ± 0.09 | 1.5 ± 0.1 | 1.57 ± 0.1 | 1.63 ± 0.11 | 1.69 ± 0.11 | –
Cc1ccc(C)cc1 [1,4-dimethylbenzene] + CCCCCCCCCCCC[N+](C)(C)CCOc1ccccc1.O=S(=O)([N-]S(=O)(=O)C(F)(F)F)C(F)(F)F | 0.916 ± 0.058 | 0.967 ± 0.061 | 1.02 ± 0.06 | 1.08 ± 0.07 | 1.14 ± 0.07 | – | 0.861 ± 0.055
C1COCCO1 [1,4-dioxane] + CCCCCCCCCCCC[N+](C)(C)CCOc1ccccc1.N#C[N-]C#N | 0.76 ± 0.05 | 0.79 ± 0.051 | 0.818 ± 0.053 | 0.846 ± 0.054 | 0.871 ± 0.056 | 0.898 ± 0.057 | –
C1COCCO1 [1,4-dioxane] + CCCCCCCCCCCC[N+](C)(C)CCOc1ccccc1.O=S(=O)([N-]S(=O)(=O)C(F)(F)F)C(F)(F)F | 0.483 ± 0.037 | 0.517 ± 0.039 | 0.551 ± 0.04 | 0.584 ± 0.041 | 0.619 ± 0.043 | – | 0.45 ± 0.036
C=CCCCCCCCC [1-decene] + CCCCCCCCCCCC[N+](C)(C)CCOc1ccccc1.N#C[N-]C#N | 6.45 ± 0.44 | 6.67 ± 0.45 | 6.83 ± 0.47 | 6.99 ± 0.48 | 7.14 ± 0.49 | 7.22 ± 0.49 | –
C=CCCCCCCCC [1-decene] + CCCCCCCCCCCC[N+](C)(C)CCOc1ccccc1.O=S(=O)([N-]S(=O)(=O)C(F)(F)F)C(F)(F)F | 4.15 ± 0.28 | 4.27 ± 0.29 | 4.4 ± 0.3 | 4.52 ± 0.31 | 4.63 ± 0.32 | – | 4.02 ± 0.27
C=CCCCCC [1-heptene] + CCCCCCCCCCCC[N+](C)(C)CCOc1ccccc1.N#C[N-]C#N | 4.19 ± 0.29 | 4.28 ± 0.29 | 4.36 ± 0.3 | 4.43 ± 0.3 | 4.51 ± 0.31 | 4.59 ± 0.31 | –
C=CCCCCC [1-heptene] + CCCCCCCCCCCC[N+](C)(C)CCOc1ccccc1.O=S(=O)([N-]S(=O)(=O)C(F)(F)F)C(F)(F)F | 2.59 ± 0.18 | 2.67 ± 0.18 | 2.76 ± 0.19 | 2.84 ± 0.19 | 2.92 ± 0.2 | – | 2.5 ± 0.17
C#CCCCCC [1-heptyne] + CCCCCCCCCCCC[N+](C)(C)CCOc1ccccc1.N#C[N-]C#N | 1.93 ± 0.13 | 2.03 ± 0.14 | 2.12 ± 0.14 | 2.21 ± 0.15 | 2.3 ± 0.16 | 2.4 ± 0.16 | –
C#CCCCCC [1-heptyne] + CCCCCCCCCCCC[N+](C)(C)CCOc1ccccc1.O=S(=O)([N-]S(=O)(=O)C(F)(F)F)C(F)(F)F | 1.53 ± 0.1 | 1.61 ± 0.11 | 1.68 ± 0.11 | 1.75 ± 0.12 | 1.83 ± 0.12 | – | 1.45 ± 0.1
C#CCCCC [1-hexyne] + CCCCCCCCCCCC[N+](C)(C)CCOc1ccccc1.N#C[N-]C#N | 1.66 ± 0.11 | 1.74 ± 0.12 | 1.82 ± 0.12 | 1.88 ± 0.13 | 1.95 ± 0.13 | 2.02 ± 0.14 | –
C#CCCCC [1-hexyne] + CCCCCCCCCCCC[N+](C)(C)CCOc1ccccc1.O=S(=O)([N-]S(=O)(=O)C(F)(F)F)C(F)(F)F | 1.33 ± 0.09 | 1.39 ± 0.09 | 1.45 ± 0.1 | 1.51 ± 0.1 | 1.57 ± 0.1 | – | 1.26 ± 0.08
CCC[N+](=O)[O-] [1-nitropropane] + CCCCCCCCCCCC[N+](C)(C)CCOc1ccccc1.N#C[N-]C#N | 0.83 ± 0.053 | 0.85 ± 0.055 | 0.868 ± 0.055 | 0.886 ± 0.056 | 0.903 ± 0.057 | 0.92 ± 0.058 | –
CCC[N+](=O)[O-] [1-nitropropane] + CCCCCCCCCCCC[N+](C)(C)CCOc1ccccc1.O=S(=O)([N-]S(=O)(=O)C(F)(F)F)C(F)(F)F | 0.747 ± 0.049 | 0.77 ± 0.05 | 0.793 ± 0.052 | 0.815 ± 0.053 | 0.837 ± 0.054 | – | 0.722 ± 0.048
C#CCCCCCC [1-octyne] + CCCCCCCCCCCC[N+](C)(C)CCOc1ccccc1.N#C[N-]C#N | 2.22 ± 0.15 | 2.34 ± 0.16 | 2.46 ± 0.17 | 2.57 ± 0.17 | 2.68 ± 0.18 | 2.8 ± 0.19 | –
C#CCCCCCC [1-octyne] + CCCCCCCCCCCC[N+](C)(C)CCOc1ccccc1.O=S(=O)([N-]S(=O)(=O)C(F)(F)F)C(F)(F)F | 1.78 ± 0.12 | 1.86 ± 0.13 | 1.95 ± 0.13 | 2.03 ± 0.14 | 2.12 ± 0.14 | – | 1.69 ± 0.11
C=CCCC [1-pentene] + CCCCCCCCCCCC[N+](C)(C)CCOc1ccccc1.N#C[N-]C#N | 3.3 ± 0.22 | 3.36 ± 0.23 | 3.42 ± 0.23 | 3.48 ± 0.24 | 3.54 ± 0.24 | 3.61 ± 0.25 | –
C=CCCC [1-pentene] + CCCCCCCCCCCC[N+](C)(C)CCOc1ccccc1.O=S(=O)([N-]S(=O)(=O)C(F)(F)F)C(F)(F)F | 1.88 ± 0.13 | 1.93 ± 0.13 | 1.98 ± 0.13 | 2.03 ± 0.14 | 2.08 ± 0.14 | – | 1.83 ± 0.12
C#CCCC [1-pentyne] + CCCCCCCCCCCC[N+](C)(C)CCOc1ccccc1.N#C[N-]C#N | 1.47 ± 0.1 | 1.53 ± 0.1 | 1.6 ± 0.11 | 1.66 ± 0.11 | 1.73 ± 0.12 | 1.79 ± 0.12 | –
